In ChEMBL document CHEMBL1126358, “New hexahydroxydiphenyl derivatives as potent inhibitors of HIV replication in H9 lymphocytes” (Bioorg Med Chem Lett, 1992):

Key:
H9 [1] = test: Concentration of compound which inhibits virus replication of HIV by 50% (EC50 of 10 uM) in acutely infected H9 lymphocyte cells was determined; type: functional, cell-based; conditions: Homo sapiens
H9 [2] = test: Concentration which inhibits uninfected cell growth of HIV by 50% (IC50>140 uM) in acutely infected H9 lymphocyte cells was determined; type: functional, cell-based; conditions: Homo sapiens

Row | SMILES | EC50 (H9 [1]) | IC50 (H9 [2])
1 | COc1c(OCc2ccccc2)c(OCc2ccccc2)cc(CO)c1-c1c(CO)cc(OCc2ccccc2)c(OCc2ccccc2)c1OC | 10 µM | > 140 µM
2 | Cc1cn([C@H]2C[C@H](N=[N+]=[N-])[C@@H](CO)O2)c(=O)[nH]c1=O [ZIDOVUDINE] | 0.04 µM | 2000 µM
3 | COc1c(OCc2ccccc2)c(OCc2ccccc2)cc(CBr)c1-c1c(CBr)cc(OCc2ccccc2)c(OCc2ccccc2)c1OC | 13 µM | 30 µM
4 | OCc1cc(OCc2ccccc2)c(OCc2ccccc2)c(OCc2ccccc2)c1-c1c(CO)cc(OCc2ccccc2)c(OCc2ccccc2)c1OCc1ccccc1 | > 120 µM | > 120 µM
5 | OCc1cc(OCc2ccccc2)c(OCc2ccccc2)c(O)c1-c1c(CO)cc(OCc2ccccc2)c(OCc2ccccc2)c1O | 6 µM | 13 µM

Continued, in another order:

Row | EC50 (H9 [1]) | SMILES | IC50 (H9 [2])
6 | 45 µM | O=Cc1cc(OCc2ccccc2)c(OCc2ccccc2)c(OCc2ccccc2)c1-c1c(C=O)cc(OCc2ccccc2)c(OCc2ccccc2)c1OCc1ccccc1 | 70 µM
7 | > 100 µM | BrCc1cc(OCc2ccccc2)c(OCc2ccccc2)c(OCc2ccccc2)c1-c1c(CBr)cc(OCc2ccccc2)c(OCc2ccccc2)c1OCc1ccccc1 | > 100 µM
8 | 2 µM | COc1c(OCc2ccccc2)c(OCc2ccccc2)cc(C=O)c1-c1c(C=O)cc(OCc2ccccc2)c(OCc2ccccc2)c1OC | 4 µM
